Source: patent US20220363667A1 (Nippon Chemiphar Co., Ltd., priority 2018, published 2022)

What follows are compounds tested against T1, human Cav3.2 channels (Homo sapiens, UniProt O95180) (assay: T-type calcium blocking action: intracellular calcium concentration in cells steadily expressing human Cav3.2 channels). Conditions: HEK293 cells steadily expressing human Cav3.2 channels; Fluo-4 AM fluorescence increase after KCl stimulus.
T1 construct: expressed in transfected cells
T1 sequence (O95180 whole entry): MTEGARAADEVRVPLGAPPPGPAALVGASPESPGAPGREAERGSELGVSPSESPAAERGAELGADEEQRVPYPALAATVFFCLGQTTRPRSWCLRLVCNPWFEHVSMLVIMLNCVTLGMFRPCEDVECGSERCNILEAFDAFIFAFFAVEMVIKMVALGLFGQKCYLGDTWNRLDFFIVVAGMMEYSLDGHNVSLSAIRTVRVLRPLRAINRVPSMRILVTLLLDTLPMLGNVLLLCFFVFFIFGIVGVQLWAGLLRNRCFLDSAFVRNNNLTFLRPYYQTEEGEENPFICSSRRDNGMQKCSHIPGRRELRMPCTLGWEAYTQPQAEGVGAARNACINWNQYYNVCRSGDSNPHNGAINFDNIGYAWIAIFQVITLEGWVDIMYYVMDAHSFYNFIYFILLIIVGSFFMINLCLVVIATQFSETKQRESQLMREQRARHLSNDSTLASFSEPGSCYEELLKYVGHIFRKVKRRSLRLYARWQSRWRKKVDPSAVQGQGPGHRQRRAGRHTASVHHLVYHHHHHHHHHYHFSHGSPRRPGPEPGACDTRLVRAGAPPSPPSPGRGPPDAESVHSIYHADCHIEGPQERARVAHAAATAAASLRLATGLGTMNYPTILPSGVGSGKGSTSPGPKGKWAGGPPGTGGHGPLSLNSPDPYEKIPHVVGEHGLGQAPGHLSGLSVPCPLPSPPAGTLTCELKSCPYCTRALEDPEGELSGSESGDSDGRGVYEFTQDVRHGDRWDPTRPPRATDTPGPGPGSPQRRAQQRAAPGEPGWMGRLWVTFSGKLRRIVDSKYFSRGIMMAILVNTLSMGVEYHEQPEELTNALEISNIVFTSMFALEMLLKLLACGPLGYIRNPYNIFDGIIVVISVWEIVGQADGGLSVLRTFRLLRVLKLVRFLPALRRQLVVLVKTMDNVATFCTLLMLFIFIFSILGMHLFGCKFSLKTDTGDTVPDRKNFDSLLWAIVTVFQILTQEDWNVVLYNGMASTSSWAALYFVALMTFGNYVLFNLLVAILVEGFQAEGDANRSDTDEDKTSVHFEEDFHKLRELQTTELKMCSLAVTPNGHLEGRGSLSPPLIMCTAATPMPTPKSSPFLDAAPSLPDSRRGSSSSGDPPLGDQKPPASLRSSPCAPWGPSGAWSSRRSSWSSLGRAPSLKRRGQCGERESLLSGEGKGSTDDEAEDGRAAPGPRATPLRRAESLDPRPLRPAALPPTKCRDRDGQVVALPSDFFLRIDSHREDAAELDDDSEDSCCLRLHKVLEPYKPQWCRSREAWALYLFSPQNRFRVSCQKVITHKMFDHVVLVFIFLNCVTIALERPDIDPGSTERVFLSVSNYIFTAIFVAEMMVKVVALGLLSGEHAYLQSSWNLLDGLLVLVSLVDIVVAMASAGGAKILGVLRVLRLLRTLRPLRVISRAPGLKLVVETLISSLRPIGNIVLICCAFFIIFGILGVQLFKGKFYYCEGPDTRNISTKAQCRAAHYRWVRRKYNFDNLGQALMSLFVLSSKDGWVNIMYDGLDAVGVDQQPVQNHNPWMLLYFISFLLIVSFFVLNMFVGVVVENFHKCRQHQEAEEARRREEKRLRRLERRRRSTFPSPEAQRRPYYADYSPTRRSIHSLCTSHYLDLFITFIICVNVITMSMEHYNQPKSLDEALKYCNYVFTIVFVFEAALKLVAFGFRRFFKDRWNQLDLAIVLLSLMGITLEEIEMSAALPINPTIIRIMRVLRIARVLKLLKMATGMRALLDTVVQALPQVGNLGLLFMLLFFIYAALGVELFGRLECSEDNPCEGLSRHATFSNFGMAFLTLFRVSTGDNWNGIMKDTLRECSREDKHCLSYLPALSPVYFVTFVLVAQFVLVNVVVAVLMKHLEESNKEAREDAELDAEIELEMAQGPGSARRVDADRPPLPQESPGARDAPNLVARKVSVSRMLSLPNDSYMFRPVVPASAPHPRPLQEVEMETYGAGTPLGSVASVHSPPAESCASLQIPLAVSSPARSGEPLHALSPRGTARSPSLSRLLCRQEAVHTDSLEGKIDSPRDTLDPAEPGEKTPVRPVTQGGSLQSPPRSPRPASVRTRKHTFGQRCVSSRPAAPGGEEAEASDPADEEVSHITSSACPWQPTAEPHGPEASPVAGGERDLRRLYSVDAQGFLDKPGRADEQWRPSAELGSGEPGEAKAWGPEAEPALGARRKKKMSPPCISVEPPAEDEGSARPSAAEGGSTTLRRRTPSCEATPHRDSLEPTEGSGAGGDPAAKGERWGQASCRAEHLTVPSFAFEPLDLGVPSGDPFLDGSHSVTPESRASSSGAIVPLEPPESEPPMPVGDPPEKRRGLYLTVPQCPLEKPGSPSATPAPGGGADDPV
Assay type: cell-based
Excerpt: (1) Construction of Cells Steadily Expressing Human Cav3.2 Channels
A sequence obtained by adding HindIII site and a kozak sequence (GCCACC) to the 5′-side of human Cav3.2 channel ORF (Open Reading Frame) gene and adding a KpnI site to the 3′-side of the gene, was incorporated into pcDNA3.1 (+) (Thermo Fisher Scientific, #V790-20), and the plasmid was introduced into HEK293 cells (ATCC No. CRL-1573) according to the protocol of FuGENE (registered trademark) HD Transfection Reagent (Promega, #E2311).
(2) Method for Measuring Intracellular Calcium Concentration
The cell strain steadily expressing human Cav3.2 channels as produced by the testing method (1) was seeded on a 96-well plate using DMEM including 10% FBS, and the cells were cultured for 48 hours under the conditions of 37° C. and 5% CO2. Subsequently, the medium was removed, and each of the wells were washed with buffer A and treated with 80 μL of a fluorescent dye solution including a mixed liquid of 22 μg of a fluorescent calcium indicator, Fluo-4 AM (Dojindo Molecular Technologies, Inc., #F311), 20 μL of dimethyl sulfoxide (DMSO), 1 μL of 10% Pluronic F-127 (Thermo Fisher Scientific, #P6866), and 4 mL of buffer A. After the cells were left to stand for 45 minutes at room temperature under light-shielded conditions, and then the cells were washed with buffer B. DMSO as a negative control and various test compound solutions each obtained by dissolving a test compound dissolved in DMSO, in buffer B so as to obtain a 10-fold concentration of the evaluation concentration, were introduced into respective wells. The final concentration of DMSO was adjusted to 0.1%. The cells were left to stand for another 15 minutes at room temperature under light-shielded conditions, and measurement was made using a microplate reader, EnVision (PerkinElmer Inc.) using the following method. First, the background fluorescence of each well was measured, subsequently an ionophore was introduced into each well, and the baseline fluorescence was measured. Subsequently, buffer B having 83.8 mM KCl added thereto was introduced, and an increase in fluorescence caused by calcium influx generated by the stimulus was measured for 10 seconds. The percentage inhibition was calculated from the maximum fluorescence increase value from the baseline, the logarithmic value of the test compound concentration and the inhibitory activity are plotted, and thereby the IC50 value was calculated. The measurement was carried out by observing the fluorescence at 510 nm that was emitted when the cells were irradiated with excitation light at 485 nm.
Buffer A: 140 mM NaCl, 5 mM KCl, 1 mM MgCl2, 0.5 mM CaCl2, 10 mM Glucose, 10 mM HEPES, pH 7.3
Buffer B: 137.9 mM Choline-Cl, 4.1 mM KCl, 1 mM MgCl2, 0.5 mM CaCl2, 10 mM Glucose, 10 mM HEPES, pH 7.3, equilibrium potential of potassium: −92 mV
For `O=C(N[C@@H]1CCCN(c2cncc(C(F)(F)F)c2)C1)[C@H]1C[C@@H]1c1nc2ccccc2[nH]1` [Example 186, (1S,23)-2-(1H-benzo[d]imidazol-2-yl)-N—((R)-1-(5-(trifluoromethyl)pyridin-3-yl)piperidin-3-yl)cyclopropane-1-carboxyamide], the IC50 was 190 nM. Work on `CS(=O)(=O)c1cccc(N2CC[C@@H](NC(=O)[C@H]3C[C@@H]3c3nc4ccccc4[nH]3)C2)c1` [Example 59, (1S,2S)-2-(1H-benzo[d]imidazol-2-yl)-N—((R)-1-(3-(methylsulfonyl)phenyl)pyrrolidin-3-yl)cyclopropane-1-carboxyamide] yielded an IC50 of 1800 nM. For `COc1ncc(N2CC[C@@H](NC(=O)[C@H]3C[C@@H]3c3nc4ccccc4[nH]3)C2)cc1C(F)(F)F` [Example 67, (1S,2S)-2-(1H-benzo[d]imidazol-2-yl)-N—((R)-1-(6-methoxy-5-(trifluoromethyl)pyridin-3-yl)pyrrolidin-3-yl) cyclopropane-1-carboxyamide], the IC50 was 29 nM. Work on `O=C(N[C@@H]1CCN(c2ccc(F)c(C(F)(F)F)c2)C1)[C@H]1C[C@@H]1c1ncc2ccccc2n1` [Example 58, (1S,2S)—N—((R)-1-(4-fluoro-3-(trifluoromethyl)phenyl)pyrrolidin-3-yl)-2-(quinazolin-2-yl)cyclopropane-1-carboxyamide] yielded an IC50 of 4400 nM. `O=C(Cc1ccc(C2CC2)cc1)N[C@@H]1CCCN(c2ccc(C(F)(F)F)nc2)C1` [Example 130, (R)-2-(4-cyclopropylphenyl)-N-(1-(6-(trifluoromethyl)pyridin-3-yl)piperidin-3-yl)acetamide] showed an IC50 of over 10000 nM. `O=C(N[C@H]1CCN(c2ccc(C(F)(F)F)nc2)C1)[C@H]1C[C@@H]1c1nc2ccccc2[nH]1` [Example 55, (1S,25)-2-(1H-benzo[d]imidazol-2-yl)-N—((S)-1-(6-(trifluoromethyl)pyridin-3-yl)pyrrolidin-3-yl)cyclopropane-1-carboxyamide] was tested, and the IC50 was 470 nM. Work on `N#Cc1cccc(N2CC[C@@H](NC(=O)[C@H]3C[C@@H]3c3nc4ccccc4[nH]3)C2)c1` [Example 60, (1S,2S)-2-(1H-benzo[d]imidazol-2-yl)-N—((R)-1-(3-cyanophenyl)pyrrolidin-3-yl)cyclopropane-1-carboxyamide] yielded an IC50 of 470 nM. With `O=C(N[C@@H]1CCN(c2ccnc(C(F)(F)F)c2)C1)[C@H]1C[C@@H]1c1nc2ccccc2[nH]1` [Example 62, (1S,2S)-2-(1H-benzo[d]imidazol-2-yl)-N—((R)-1-(2-(trifluoromethyl)pyridin-4-yl)pyrrolidin-3-yl)cyclopropane-1-carboxyamide] the IC50 was 410 nM. `O=C(Cc1ccc(C2CC2)cc1)N[C@@H]1CCN(c2ccc(OCC(F)(F)F)nc2)C1` [Example 125, (R)-2-(4-cyclopropylphenyl)-N-(1-(6-(2,2,2-trifluoroethoxy)pyridin-3-yl)pyrrolidin-3-yl)acetamide] was tested, and the IC50 was over 10000 nM. `O=C(N[C@@H]1CCN(c2ncc(C(F)(F)F)cn2)C1)[C@H]1C[C@@H]1c1nc2ccccc2[nH]1` [Example 56, (1S,2S)-2-(1H-benzo[d]imidazol-2-yl)-N—((R)-1-(5-(trifluoromethyl)pyrimidin-2-yl)pyrrolidin-3-yl)cyclopropane-1-carboxyamide] gave an IC50 of 290 nM. `NC(C(=O)N[C@@H]1CCN(c2cncc(C(F)(F)F)c2)C1)c1ccc(C2CC2)cc1` (stereo partly drawn) [Example 137B, 2-amino-2-(4-cyclopropylphenyl)-N((R)-1-(5-(trifluoromethyl)pyridin-3-yl)pyrrolidin-3-yl)acetamide] gave an IC50 of 820 nM. `COc1ncc(C(F)(F)F)cc1N1CC[C@@H](NC(=O)Cc2ccc(C3CC3)cc2)C1` [Example 128, (R)-2-(4-cyclopropylphenyl)-N-(1-(2-methoxy-5-(trifluoromethyl)pyridin-3-yl)pyrrolidin-3-yl)acetamide] showed an IC50 of over 10000 nM. `N#Cc1ccc2[nH]c(C3CC3C(=O)N[C@@H]3CCN(c4ccc(C(F)(F)F)nc4)C3)nc2c1` (single isomer, unassigned) [Example 61A] showed an IC50 of 1100 nM. With `O=C(N[C@@H]1CCN(c2ccc(C(F)(F)F)nn2)C1)[C@H]1C[C@@H]1c1nc2ccccc2[nH]1` [Example 69, (1S,2S)-2-(1H-benzo[d]imidazol-2-yl)-N—((R)-1-(6-(trifluoromethyl)pyridazin-3-yl)pyrrolidin-3-yl)cyclopropane-1-carboxyamide] the IC50 was 1200 nM. `N#Cc1ccc2[nH]c(C3CC3C(=O)N[C@@H]3CCN(c4ccc(C(F)(F)F)nc4)C3)nc2c1` (single isomer, unassigned) [Example 61B] showed an IC50 of 2200 nM. With `O=C(Cc1ccc(C2CC2)cc1)N[C@@H]1CCN(c2cc(C(F)(F)F)c3nccn3c2)C1` [Example 20, (R)-2-(4-cyclopropylphenyl)-N-(1-(8-(trifluoromethyl)imidazo[1,2-a]pyridin-6-yl)pyrrolidin-3-yl)acetamide] the IC50 was over 10000 nM. For `O=C(N[C@@H]1CCN(c2cncc(C(F)(F)F)c2)C1)[C@H]1C[C@@H]1c1nc2cc(F)c(F)cc2o1` [Example 45], the IC50 was 11 nM. `O=C(Cc1ccc(C2CC2)cc1)NC1CN(c2ccc(C(F)(F)F)cc2)C1` [Example 169, 2-(4-Cyclopropylphenyl)-N-(1-(4-(trifluoromethyl)phenyl)azetidin-3-yl)acetamide] showed an IC50 of over 10000 nM.

The compounds below were run on SD rats (assay: Rat formalin test). Conditions: po, 30 mg/kg orally once, pain behavior time from 15 to 30 minutes after formalin administration vs vehicle group, read-out: Inhibition ratio (pain behavior inhibition ratio).
Assay type: in vivo
Description: 30 mg/kg of a vehicle or a test substance was orally administrated to SD rats once, and according to the method described in McNamara C. R., Mandel-Brehm J., Bautista D. M., Siemens J., Deranian K. L., Zhao M., Hayward N. J., Chong J. A., Julius D., Moran M. M., Fanger C. M.: TRPA1 mediates formalin-induced pain. Proc. Natl. Acad. Sci. U.S.A. 104, 2007, 13525-13530, 50 μL of a 2.0% formalin solution as a pain-inducing substance was subcutaneously administered under the skin of the plantar plate of the right hind limb of each rat.
Regarding the evaluation, the pain behavior inhibition ratio was determined from the pain behavior time of each test substance-administered group with respect to the pain behavior time of the vehicle-administered group for 15 minutes measured from 15 minutes to 30 minutes after the administration.
In the case of `O=C(Cc1ccc(C2CC2)cc1)N[C@H]1CN(c2nc(C(F)(F)F)cs2)CC12CC2` [Example 8, (R)-2-(4-cyclopropylphenyl)-N-(5-(4-(trifluoromethyl)thiazol-2-yl)-5-azaspiro[2.4]heptan-7-yl)acetamide], the inhibition in vivo at 30 mg/kg is reported as under 10%. With `CC(C)c1ccc(CC(=O)N[C@@H]2CCN(c3cncc(C(F)(F)F)c3)C2)cc1` [Example 4, (R)-2-(4-isopropylphenyl)-N-(1-(5-(trifluoromethyl)pyridin-3-yl)pyrrolidin-3-yl)acetamide] the inhibition in vivo at 30 mg/kg was at least 20%. `O=C(Cc1ccc2ncccc2c1)N[C@@H]1CCN(c2cncc(C(F)(F)F)c2)C1` [Example 77, (R)-2-(quinolin-6-yl)-N-(1-(5-(trifluoromethyl)pyridin-3-yl)pyrrolidin-3-yl)acetamide] showed an inhibition in vivo at 30 mg/kg of under 10%. In the case of `O=C(N[C@@H]1CCN(c2cncc(C(F)(F)F)c2)C1)C1CC1c1ccc(Br)cc1` (single isomer, unassigned) [Example 100A], the inhibition in vivo at 30 mg/kg is reported as at least 20%. In the case of `CC(C)(C(=O)N[C@@H]1CCN(c2cncc(C(F)(F)F)c2)C1)c1ccc(C2CC2)cc1` [Example 135, (R)-2-(4-cyclopropylphenyl)-2-methyl-N-(1-(5-(trifluoromethyl)pyridin-3-yl)pyrrolidin-3-yl)propanamide], the inhibition in vivo at 30 mg/kg is reported as under 10%. `O=C(Cc1ccc(C2CC2)cc1)N[C@@H]1CCN(c2cncc(C(F)(F)F)c2)C1` [Example 1, (R)-2-(4-cyclopropylphenyl)-N-(1-(5-(trifluoromethyl)pyridin-3-yl)pyrrolidin-3-yl)acetamide] was tested, and the inhibition in vivo at 30 mg/kg was at least 20%. `O=C(Cc1ccc(C(F)(F)F)cc1)N[C@@H]1CCN(c2cncc(C(F)(F)F)c2)C1` [Example 123, (R)-2-(4-(trifluoromethyl)phenyl)-N-(1-(5-(trifluoromethyl)pyridin-3-yl)pyrrolidin-3-yl)acetamide] gave an inhibition in vivo at 30 mg/kg of at least 20%. `O=C(Cc1ccc(C2CC2)cc1)N[C@H]1CN(c2cncc(C(F)(F)F)c2)C[C@@H]1O` [Example 5, 2-(4-Cyclopropylphenyl)-N-((3S,4S)-4-hydroxy-1-(5-(trifluoromethyl)pyridin-3-yl)pyrrolidin-3-yl)acetamide] was tested, and the inhibition in vivo at 30 mg/kg was at least 20%.
